Results: PubChem BioAssay AID1626 (SRMLSC, 2009)

Tested on: M. tuberculosis H37Rv growth inhibition
Experiment: M. tuberculosis H37Rv growth inhibitors, H37Rv strain (AID 1626)
Conditions: for IC90: measured here: IC90 against H37Rv; for CC50: measured here: Vero cell cytotoxicity

Row | SMILES | IC50 | IC90 | CC50
1 | CCOC(=O)C(C)Sc1ncc(-c2ccc(Cl)cc2)cn1 (stereo not drawn) | 2.71 µM | 5.04 µM | 
2 | CCCOc1ccc(-c2nc(C#N)c(NCCCn3ccnc3)o2)cc1 | 15 µM | > 100 µM | > 40 µM
3 | CC(=O)Nc1ccc(Nc2cc(C(C)C)nc3c(-c4ccccc4)c(C)nn23)cc1 | 5.08 µM | 9 µM | > 40 µM
4 | CCc1c(C#N)c(N)nc(SCC(=O)OCc2ccccc2)c1C#N |  | > 100 µM | 
5 | Cn1c(C(C#N)C(=O)c2sc3ccccc3c2Cl)nc2ccccc21 (stereo not drawn) |  |  | > 40 µM
6 | CCOC(=O)c1ccc(COC(=O)c2ccc(-c3nnc(-c4ccccc4)o3)cc2)o1 | 23.4 µM | > 100 µM | > 40 µM
7 | CCC(CC)c1nnc(NC(=O)c2ccc3ccccc3n2)s1 | 0.814 µM | 1.48 µM | 35.7 µM
8 | O=C(OCc1ccc(F)cc1)c1ccc2ccccc2n1 | 8.16 µM | 14.4 µM | 
9 | CCOc1ccc(NC2c3ccccc3C(=O)N2Cc2ccco2)cc1 (stereo not drawn) | 19.1 µM | > 100 µM | 
10 | CCOC(=O)c1ccc(NC(=O)N2CCN(Cc3ccccc3)CC2)cc1 |  | > 100 µM | 
11 | C=CCNc1nnc(Sc2ncccc2[N+](=O)[O-])s1 | 3.96 µM | 6.01 µM | 
12 | N#CC(c1cccc(Cl)c1)c1ccc2c(C(F)(F)F)cc(C(F)(F)F)nc2n1 (stereo not drawn) |  |  | 0.415 µM
13 | COc1cc2c(cc1NCc1ccc3c(c1)OCO3)oc1ccccc12 | 89.1 µM | > 100 µM | 
14 | CCOC(=O)CNC(=O)CSc1nc(-c2ccccc2)ns1 | 1.48 µM | 3.2 µM | 
15 | CCOC(=O)COc1ccc(-c2nnc(-c3ccccc3)o2)cc1 | 0.409 µM | 3.76 µM | 
16 | Cc1ccc(-c2csc3ncnc(Oc4ccc5c(C)cc(=O)oc5c4)c23)cc1 | < 0.195 µM | > 100 µM | > 40 µM
17 | Cc1csc(NC(=O)CSc2ccc(-c3ccccn3)nn2)n1 | 5.48 µM | 6.15 µM | > 40 µM
18 | O=C(O)c1ccc(-c2nc(-c3ccc(Cl)cc3)cs2)cc1 | 88.6 µM | > 100 µM | > 40 µM
19 | O=C(C=C=Nc1ccccc1)C(=O)N=C=Cc1ccccc1 | 16.4 µM | 25 µM | 22.8 µM
20 | Nc1cccc(-c2cc3ccccc3oc2=O)c1 | 29.4 µM | > 100 µM | 
21 | COc1ccc(N2CCN(C(=O)CN3CCN(c4nc(-c5ccc(F)cc5)cs4)CC3)CC2)cc1 |  |  | > 40 µM

Row | SMILES | IC50 | IC90 | CC50
22 | CCN(CC)c1ccc(/C=C(/C#N)c2nc3ccccc3[nH]2)c(OC(C)C)c1 | 0.488 µM | 0.936 µM | > 40 µM
23 | COc1cc2c(cc1OC)C1(Nc3c-2c(-c2ccccc2)nn3-c2ccccc2)C(=O)Nc2ccccc21 (stereo not drawn) | 7.21 µM | 13.2 µM | 23.7 µM
24 | O=C1Nc2ccccc2/C1=C/C(=O)c1cccs1 | 4.39 µM | 26.1 µM | 33.7 µM
25 | CCCOc1ccc(NCC(=O)Nc2ccc(C)cc2C)cc1 | < 0.391 µM | > 100 µM | 
26 | Cc1nc(S/C(=C/c2ccc(-c3ccc(Cl)cc3)o2)C(=O)O)n[nH]1 | 10.6 µM | > 100 µM | > 40 µM
27 | FC(F)(F)c1nnc(-c2ccccc2)nc1Sc1ccccc1 | 21.9 µM | 25.3 µM | > 40 µM
28 | Cc1nc2ccc(NC(=O)c3ccc(Br)o3)cc2s1 | 64.2 µM | > 100 µM | 
29 | CSc1nc(N(C)C)c2ccccc2n1 | 42.9 µM | > 100 µM | 
30 | Cc1cc(NC(=O)c2cc(-c3ccncc3)nc3c(C)cccc23)no1 | 48.1 µM | 74.3 µM | 12.9 µM
31 | O=C1C=C(Nc2ccccc2)C(=O)c2ccccc21 | 11.7 µM | 13.4 µM | > 40 µM
32 | N#Cc1c(SCC(N)=O)nsc1SCc1ccccc1Cl | 12.1 µM | 14.5 µM | 
33 | COc1cccc(-c2nnc(Nc3nc4c(F)cccc4s3)o2)c1 | 1.56 µM | 51.8 µM | > 40 µM
34 | CCN1CCN(Cc2ccc(NC(=O)c3ccc(C)c(NC(=O)c4c[nH]c5cc(C(F)(F)F)ccc5c4=O)c3)cc2C(F)(F)F)CC1 | 3.86 µM | 4.72 µM | 3.28 µM
35 | CCOc1ccc(-c2csc(/C(C#N)=C\c3ccc(O)c([N+](=O)[O-])c3)n2)cc1 | 8.54 µM | 14.9 µM | 10.9 µM
36 | Cc1cnc(NC(=O)c2cc3c(C)nn(-c4ccccc4)c3s2)s1 | 61 µM | > 100 µM | > 40 µM
37 | Cc1ccccc1C(=O)Nc1nnc(-c2ccc(F)cc2)o1 | 1.11 µM | 3.78 µM | 39.1 µM
38 | NC1CCN(c2nc3c(cc2F)c(=O)c(C(=O)O)cn3-c2ccc(F)cc2F)C1 (stereo not drawn) | 1.29 µM | 4.21 µM | 
39 | COc1ccc(Cn2c(O)c(/C=C3/C=CC=N3)c(=O)[nH]c2=O)cc1 | 0.269 µM | > 100 µM | > 40 µM
40 | COc1ccc(/C=C/C(=O)Oc2ccc(C)c(C)c2)cc1OC | 9.43 µM | > 100 µM | 
41 | Cc1cc([N+](=O)[O-])ccc1NC(=O)c1ccc(NC(=O)C(C)C)cc1 | 12.3 µM | > 100 µM | 
42 | CCCCn1c(NC(=O)C2CCCCC2)nc2ccccc21 | 0.881 µM | > 100 µM | 35 µM

Row | SMILES | IC50 | IC90 | CC50
43 | CCCN(CC1CC1)C(=O)COC(=O)c1ccc2c(c1)C(=O)N(c1ccc(OCC)cc1)C2=O |  | > 100 µM | 
44 | COc1ccc(NCC(=O)Nc2ccc(Cl)cc2C)c(OC)c1 | 27.4 µM | > 100 µM | 
45 | Cc1cc(=O)oc2cc(Oc3ccc([N+](=O)[O-])cc3C(F)(F)F)ccc12 | 12.2 µM | > 100 µM | 
46 | O=C(/C=C/c1cccnc1)/C=C/c1cccnc1 | 0.909 µM | 1.33 µM | 3.09 µM
47 | CCOC(=O)c1ccc(NC(=O)/C=C/c2cccs2)cc1 | 71.3 µM | > 100 µM | 
48 | COC(=O)/C(=C1/Oc2cc(C)oc(=O)c2S1)C(F)(F)F | 0.698 µM | 23.8 µM | 6.33 µM
49 | O=C(OCC#CCSc1nnc(-c2ccc(Br)cc2)o1)c1cccs1 | < 0.195 µM | 2.44 µM | 
50 | CC1CCN(c2ccc(C=O)o2)CC1 | 55.9 µM | > 100 µM | 
51 | CC(=O)c1ccc(NC(=O)CSCC(=O)Nc2ccc3ccccc3c2)cc1 | 51 µM | > 100 µM | 
52 | O=C1c2cc([N+](=O)[O-])cc3cc([N+](=O)[O-])cc(c23)C(=O)N1c1ccccn1 | 2.91 µM | 3.34 µM | 35.9 µM
53 | CC1CC(C)CN(C(=O)/C=C/c2ccc([N+](=O)[O-])s2)C1 (stereo not drawn) | 10.2 µM | 13.3 µM | 37.4 µM
54 | COc1cccc(NC(=O)c2cc(-c3ccncc3)nc3c(C)cc(C)cc23)c1 | 10.9 µM | 18.5 µM | > 40 µM
55 | COc1cccc(Nc2c3c(nc4c(-c5ccccc5)c(C)nn24)CCC3)c1 | 3.4 µM | 5.95 µM | > 40 µM
56 | Cc1ccc(C(=O)N/C(=C\c2ccc(-c3ccc(Br)cc3)o2)C(=O)NCCCN(C)C)cc1 | 15.5 µM | 18.2 µM | 6.45 µM
57 | O=[N+]([O-])c1cc(C=Nc2ccc3ccccc3c2)ccc1Br | 5.95 µM | > 100 µM | 
58 | COc1ccc(CCNCC(O)Cn2c3ccccc3c3ccccc32)cc1OC (stereo not drawn) | 10.6 µM | 15.2 µM | 11.8 µM
59 | CCOc1ccc(NC(=O)Nc2ccccc2SC)cc1 |  |  | > 40 µM
60 | CC1(C)Cc2c(C#N)c(N3CCN(C(=O)c4ccccc4)CC3)nc(Cc3ccccc3)c2CO1 | 10.5 µM | 18.7 µM | > 40 µM
61 | O=Cc1ccc(-c2ccc(Cl)cc2Cl)[nH]1 | 8.46 µM | > 100 µM | 
62 | O=C(NC(=O)c1ccc(C(F)(F)F)cc1)Nc1ccc(-c2cnco2)cc1 | 49.6 µM | > 100 µM | > 40 µM
63 | O=C(/C=C/c1cn(CC(O)CN2CCCCCC2)c2ccccc12)c1cccs1 (stereo not drawn) | 0.993 µM | 1.95 µM | 20 µM

Row | SMILES | IC50 | IC90 | CC50
64 | CC(=O)NC(=O)c1ccc(-c2ccc(Cl)cc2)o1 | 11.3 µM | > 100 µM | 
65 | Nc1ccc(N=Nc2ccccc2)cc1 |  | > 100 µM | 
66 | Cc1[nH]c2ccccc2c1C1=NNC(=Nc2ccc(F)cc2)SC1 | 13.3 µM | 49.8 µM | > 40 µM
67 | Cc1c2c(nc3ccccc13)CCC(C)C2 (stereo not drawn) | 16.6 µM | 40.6 µM | 
68 | O=[N+]([O-])c1ccc(COc2ccc(-c3[nH]ncc3-c3ccc(Cl)cc3)c(O)c2)cc1 | 23 µM | > 100 µM | > 40 µM
69 | Fc1ccc(Sc2nc(-c3ccccc3)nnc2C(F)(F)F)cc1 | 90.4 µM | > 100 µM | > 40 µM
70 | O=C(NCc1cn(-c2ccccc2)nc1-c1ccccc1)c1cc([N+](=O)[O-])cc([N+](=O)[O-])c1 | 0.591 µM | 0.847 µM | > 40 µM
71 | CCOC(=O)c1ccc(NC(=O)CCOc2ccc(C)cc2)cc1 | 20.9 µM | > 100 µM | 
72 | CCn1c(NC(=O)c2nn(C)cc2Br)nc2ccccc21 | 6.62 µM | 13.2 µM | > 40 µM
73 | Cc1sc(NC(=O)c2ccco2)c(C(c2ccccc2)N2CCC(C)CC2)c1C (stereo not drawn) |  |  | > 40 µM
74 | c1ccc(CNc2nc(CN3CCOCC3)nc3scc(-c4ccccc4)c23)cc1 | 13 µM | 21.9 µM | 
75 | Cn1ccnc1C(O)c1cc(C(C)(C)C)c(O)c(C(C)(C)C)c1 (stereo not drawn) | 10.3 µM | 13.8 µM | 
76 | COc1ccc(N2C(=O)C(F)(F)C2c2ccccc2F)cc1 (stereo not drawn) | 5.79 µM | 12.1 µM | 
77 | COC(=O)[C@H](NC(=O)c1cc(-c2ccccc2)nc2ccccc12)c1ccccc1 | 1.69 µM | 3.37 µM | 
78 | CCOc1ccc(/C=C/C(=O)c2ccccc2)cc1OC |  | > 100 µM | > 40 µM
79 | Cc1ccc(C)c(/C=C/C(=O)c2ccccc(=O)c2O)c1 |  |  | 4.93 µM
80 | CCCOC(=O)c1ccc(NC(=O)Oc2ccccc2)cc1 | 4.53 µM | > 100 µM | 
81 | O=c1[nH]c(=O)n(Cc2ccccc2Cl)c(O)c1/C=C1/C=CC=N1 | < 0.391 µM | 3.23 µM | 27.2 µM
82 | CCOC(=O)C1CCN(c2nc3cc(OC)ccc3cc2C#N)CC1 | 8.91 µM | 14.2 µM | 
83 | Cc1cc(/C=N/n2cnnc2)c(C)n1-c1ccc(OCc2ccc(Cl)cc2Cl)cc1 | 8.02 µM | 15 µM | 21.6 µM
84 | CCOC(=O)C1CCCN(c2ccc([N+](=O)[O-])c3nonc23)C1 (stereo not drawn) | 1.46 µM | 1.6 µM | 
